Measurements from patent publication US10857170B1, “Molecules, compositions and methods for modulation of SIRT6” (SirTLab Corporation, priority 2015, dated 2020).

Target: T1, Human recombinant SIRT6 (Homo sapiens, UniProt Q8N6T7)
T1 construct: six-histidine (His6); made in house; host or cells: Escherichia coli BL21
Test: SIRT6 enzymatic activity assay (fluorogenic de-myristoylation of histone H3 peptide-AMC, trypsin-coupled)
Type: biochemical
Conditions: for % activity 20 uM / % activity 100 uM: Table 2, percentage of signal increase relative to control wells; for % activity 20 uM: compound 20 uM; for % activity 100 uM: compound 100 uM
Protocol: Human recombinant SIRT6 (sequence identifier: CAG33481.1; GI:4814651) was expressed in large scale in Escherichia coli strain BL21 as a six-histidine-tagged protein, after transformation of the expression plasmid pET28-SIRT6. The SIRT6 enzyme was purified from the bacteria culture broth in a two-step strategy. The first purification step was carried out by cation exchange chromatography on a HiTrap CM-Sepharose column (GE Healthcare) using an FPLC system. The second purification step was performed by immobilized metal ion affinity chromatography (IMAC) using a cobalt affinity column (Clontech).
The enzymatic activity assay is carried out in 96 or 384-well microplates using the purified recombinant SIRT6 and a fluorophore-labeled peptide substrate: 7-amino-4-methylcoumarin (AMC) that is quenched through conjugation to the C-terminal end of a Lysin-myristoylated histone H3 peptide. The activity assay procedure requires two steps, both performed in the same microplate. In the first step, the substrate is incubated with the purified SIRT6 protein along with the co-substrate nicotinamide adenine dinucleotide (NAD+). Upon de-myristoylation, the liberated ε-amino group of the lysine becomes a trypsin substrate. Treatment with trypsin in the second step releases the fluorophore resulting in an increase in fluorescence. Fluorescence intensity is measured using a fluorescent plate reader (excitation and emission at 370 nm and 450 nm, respectively). The fluorescence signal is directly proportional to SIRT6 enzymatic activity.
In the primary screening, compounds from a library (ChemDiv Inc.) were tested at a single concentration of 20 micromolar for their potential to modulate SIRT6 enzymatic activity. The assay was carried out in 384-well black well plates and all liquid handling was done using a robotic liquid handler. Purified recombinant SIRT6 (1 micromolar) was pre-incubated with each compound (or DMSO in control wells) for 15 minutes at room temperature. The first stage of the assay was initiated by adding a ‘substrate solution’ containing the myristoylated histone H3 peptide and NAD+(for final concentrations of 25 micromolar and 20 micromolar, respectively). After one hour incubation at 37° C., a Trypsin solution (6 mg/mL) was added for 30 minutes at room temperature. Fluorescence intensity was measured using a fluorescent plate reader (Tecan) with excitation at 370 nm and emission at 450 nm. The effect of each tested compound was evaluated by the change in the fluorescence intensity compared to control wells. […] To validate the primary screening results, each of the primary “hits” was re-tested, first at concentration of 20 micromolar in duplicates and later at a serial dilution ranging from 100 to 0.2 micromolar in triplicates.

T1 sequence (Q8N6T7 whole entry): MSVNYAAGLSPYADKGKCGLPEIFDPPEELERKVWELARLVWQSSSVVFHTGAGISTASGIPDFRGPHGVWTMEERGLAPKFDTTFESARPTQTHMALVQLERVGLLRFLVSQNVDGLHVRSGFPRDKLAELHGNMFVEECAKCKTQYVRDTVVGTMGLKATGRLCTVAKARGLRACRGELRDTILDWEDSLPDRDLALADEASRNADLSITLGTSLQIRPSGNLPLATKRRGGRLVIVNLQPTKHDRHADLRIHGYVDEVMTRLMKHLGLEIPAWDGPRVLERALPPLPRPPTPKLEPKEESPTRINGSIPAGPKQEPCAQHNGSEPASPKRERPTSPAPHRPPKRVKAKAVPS

SMILES: CCn1c2ccccc2c2nnc(N3CCN(c4cccc(C(F)(F)F)c4)CC3)nc21 [compound 64]
- % activity (20 micromolar only) (Table 3, compound 20 micromolar): 85%

SMILES: CCc1nc(-c2ccccc2)c2cc(Cl)ccc2n1 [compound 1]
- % activity 20 uM: 88%
- % activity 100 uM: 428%

SMILES: C=S(=O)(C1=CC=C(c2ccc(N3CCCCC3)nn2)C1)N1CCCC(C(=O)OCC)C1 (centres unmarked) [compound 38]
- % activity 20 uM: 52%
- % activity 100 uM: 52%

SMILES: N#Cc1c(N)oc(C2=CC=CC2)c1-c1ccco1 [compound 14]
- % activity 20 uM: 28%
- % activity 100 uM: 48%

SMILES: C=C(c1ccc(-c2nc3ccccc3n(CC(C)C)c2=O)cc1)N1CCN(c2ccccc2)CC1 [compound 46]
- % activity 20 uM: 51%
- % activity 100 uM: 56%

SMILES: O=C(NCc1cccc(Cl)c1)c1noc2c1CSc1ccccc1-2 [compound 27]
- % activity 20 uM: 59%
- % activity 100 uM: 137%

SMILES: C=C(CN1C(=C)C(c2nc(-c3ccccc3)no2)=C(C)C=C1C)NC1CCCCC1 [compound 33]
- % activity 20 uM: 53%
- % activity 100 uM: 221%

SMILES: CCc1nnc(NC(=O)CSc2nc(N)nc(SC)c2C#N)s1 [compound 8]
- % activity 20 uM: 25%
- % activity 100 uM: 25%

SMILES: CCC(=O)Nc1ccc(-c2cc(C(=O)NCCCN3CCCCC3C)c3ccccc3n2)cc1 (centres unmarked) [compound 41]
- % activity 20 uM: 40%
- % activity 100 uM: 110%
